Measurements taken from the kinase profiling compilation of Christmann-Franck et al. (2016).

Legend:
Experiment in all cases: KINOMEscan competition binding
Conditions in all cases: compound 2.0 µM
PRKD2 (human) = PRKD2 (human) (UniProt Q9BZL6)
EPHB1 (human) = EPHB1 (human) (UniProt P54762)
MELK (human) = MELK (human) (UniProt Q14680)
MAP2K7 (human) = MAP2K7 (human) (UniProt O14733)
AKT3 (human) = AKT3 (human) (UniProt Q9Y243)
CDK16 (human) = CDK16 (human) (UniProt Q00536)
MAP4K2 (human) = MAP4K2 (human) (UniProt Q12851)
EPHA4 (human) = EPHA4 (human) (UniProt P54764)
[1] = system: PIK3CA (human), P42336 [Q546K]
BMPR1B (human) = BMPR1B (human) (UniProt O00238)
TAOK3 (human) = TAOK3 (human) (UniProt Q9H2K8)
[2] = system: EGFR (human), P00533 [G719C]
PRKD1 (human) = PRKD1 (human) (UniProt Q15139)
FGFR2 (human) = FGFR2 (human) (UniProt P21802)
CDC42BPB (human) = CDC42BPB (human) (UniProt Q9Y5S2)
ACVR2B (human) = ACVR2B (human) (UniProt Q13705)
RPS6KA5 KD2 (human) = RPS6KA5 KD2 (human) (UniProt O75582)
DAPK3 (human) = DAPK3 (human) (UniProt O43293)
IRAK4 (human) = IRAK4 (human) (UniProt Q9NWZ3)
ITK (human) = ITK (human) (UniProt Q08881)
CIT (human) = CIT (human) (UniProt O14578)
DAPK2 (human) = DAPK2 (human) (UniProt Q9UIK4)
IGF1R (human) = IGF1R (human) (UniProt P08069)
MAP2K5 (human) = MAP2K5 (human) (UniProt Q13163)
ACVR1B (human) = ACVR1B (human) (UniProt P36896)
PIP5K1A (human) = PIP5K1A (human) (UniProt Q99755)
PRKACA (human) = PRKACA (human) (UniProt P17612)
FGR (human) = FGR (human) (UniProt P09769)
TGFBR1 (human) = TGFBR1 (human) (UniProt P36897)
[3] = system: ABL1 (human), P00519 [Y253F]
EPHA1 (human) = EPHA1 (human) (UniProt P21709)
NIM1 (human) = NIM1 (human) (UniProt Q8IY84)
[4] = system: RET (human), P07949 [M918T]
FGFR1 (human) = FGFR1 (human) (UniProt P11362)
TNNI3K (human) = TNNI3K (human) (UniProt Q59H18)
RIPK1 (human) = RIPK1 (human) (UniProt Q13546)
DYRK2 (human) = DYRK2 (human) (UniProt Q92630)
PRKCD (human) = PRKCD (human) (UniProt Q05655)
ERBB4 (human) = ERBB4 (human) (UniProt Q15303)
ACVR1 (human) = ACVR1 (human) (UniProt Q04771)
MAP3K11 (human) = MAP3K11 (human) (UniProt Q16584)
GRK1 (human) = GRK1 (human) (UniProt Q15835)
PDGFRA (human) = PDGFRA (human) (UniProt P16234)

Chain of ACVR1 (human) (Q04771 whole entry, looked up): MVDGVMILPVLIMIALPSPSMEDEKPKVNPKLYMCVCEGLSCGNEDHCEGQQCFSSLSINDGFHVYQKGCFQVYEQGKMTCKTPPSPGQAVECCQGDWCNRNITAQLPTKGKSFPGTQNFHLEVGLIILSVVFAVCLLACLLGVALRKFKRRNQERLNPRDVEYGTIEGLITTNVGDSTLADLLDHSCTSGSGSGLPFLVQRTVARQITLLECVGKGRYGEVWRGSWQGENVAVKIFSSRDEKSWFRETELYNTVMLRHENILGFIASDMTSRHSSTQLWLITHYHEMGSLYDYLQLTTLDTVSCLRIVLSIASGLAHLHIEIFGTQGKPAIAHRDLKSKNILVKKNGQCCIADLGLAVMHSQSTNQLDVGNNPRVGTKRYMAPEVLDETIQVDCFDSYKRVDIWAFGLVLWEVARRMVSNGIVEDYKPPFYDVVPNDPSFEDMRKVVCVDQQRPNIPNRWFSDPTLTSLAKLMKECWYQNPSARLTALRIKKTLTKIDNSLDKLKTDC
Chain of DYRK2 (human) (Q92630 whole entry, looked up): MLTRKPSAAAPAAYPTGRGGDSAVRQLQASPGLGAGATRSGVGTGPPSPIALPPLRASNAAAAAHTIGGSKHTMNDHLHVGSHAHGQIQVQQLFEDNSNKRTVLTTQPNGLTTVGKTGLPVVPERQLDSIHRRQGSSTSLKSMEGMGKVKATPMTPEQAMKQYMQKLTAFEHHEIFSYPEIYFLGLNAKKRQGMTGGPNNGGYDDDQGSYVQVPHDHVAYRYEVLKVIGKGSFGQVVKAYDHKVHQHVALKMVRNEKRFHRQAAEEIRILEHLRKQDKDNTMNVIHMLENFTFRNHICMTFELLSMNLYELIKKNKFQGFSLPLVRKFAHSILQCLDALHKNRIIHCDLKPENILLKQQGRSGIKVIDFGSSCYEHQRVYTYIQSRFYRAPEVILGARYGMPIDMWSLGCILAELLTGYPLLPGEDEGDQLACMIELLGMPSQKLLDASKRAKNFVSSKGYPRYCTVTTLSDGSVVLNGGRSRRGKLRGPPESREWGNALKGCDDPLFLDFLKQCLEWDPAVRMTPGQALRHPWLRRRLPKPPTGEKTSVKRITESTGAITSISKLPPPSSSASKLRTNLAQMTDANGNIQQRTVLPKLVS
Chain of MAP4K2 (human) (Q12851 whole entry, looked up): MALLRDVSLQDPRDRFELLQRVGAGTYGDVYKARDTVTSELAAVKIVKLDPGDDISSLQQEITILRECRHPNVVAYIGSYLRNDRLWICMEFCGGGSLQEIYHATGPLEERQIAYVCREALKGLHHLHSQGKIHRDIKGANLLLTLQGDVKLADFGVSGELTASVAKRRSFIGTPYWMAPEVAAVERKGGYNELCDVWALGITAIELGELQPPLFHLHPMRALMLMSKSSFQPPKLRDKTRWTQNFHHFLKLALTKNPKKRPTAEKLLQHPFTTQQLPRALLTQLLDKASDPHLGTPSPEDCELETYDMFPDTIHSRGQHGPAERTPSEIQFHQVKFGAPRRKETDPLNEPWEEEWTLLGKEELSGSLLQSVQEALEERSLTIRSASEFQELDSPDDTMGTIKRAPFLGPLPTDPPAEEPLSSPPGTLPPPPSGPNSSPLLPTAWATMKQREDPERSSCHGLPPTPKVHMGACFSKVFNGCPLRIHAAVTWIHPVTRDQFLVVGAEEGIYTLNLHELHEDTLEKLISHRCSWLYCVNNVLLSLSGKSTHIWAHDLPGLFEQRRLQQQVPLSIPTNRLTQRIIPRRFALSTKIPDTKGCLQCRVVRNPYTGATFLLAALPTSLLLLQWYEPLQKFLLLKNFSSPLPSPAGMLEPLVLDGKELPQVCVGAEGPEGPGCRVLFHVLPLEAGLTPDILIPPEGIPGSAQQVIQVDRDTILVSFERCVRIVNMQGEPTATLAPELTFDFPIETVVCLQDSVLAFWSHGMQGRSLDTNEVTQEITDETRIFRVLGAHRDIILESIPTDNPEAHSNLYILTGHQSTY
Chain of IRAK4 (human) (Q9NWZ3 whole entry, looked up): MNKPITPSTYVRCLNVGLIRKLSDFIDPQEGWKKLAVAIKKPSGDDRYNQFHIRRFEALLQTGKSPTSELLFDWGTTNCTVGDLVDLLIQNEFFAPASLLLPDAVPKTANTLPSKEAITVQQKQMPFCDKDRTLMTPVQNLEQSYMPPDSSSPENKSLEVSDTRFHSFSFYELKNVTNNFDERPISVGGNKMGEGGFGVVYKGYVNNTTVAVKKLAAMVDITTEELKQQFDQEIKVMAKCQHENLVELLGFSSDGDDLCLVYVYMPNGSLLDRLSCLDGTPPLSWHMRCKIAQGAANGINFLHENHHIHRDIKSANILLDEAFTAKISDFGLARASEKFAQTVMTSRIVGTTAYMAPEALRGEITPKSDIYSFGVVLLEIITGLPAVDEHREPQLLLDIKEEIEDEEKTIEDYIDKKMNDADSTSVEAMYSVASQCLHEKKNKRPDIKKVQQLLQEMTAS
Chain of TAOK3 (human) (Q9H2K8 whole entry, looked up): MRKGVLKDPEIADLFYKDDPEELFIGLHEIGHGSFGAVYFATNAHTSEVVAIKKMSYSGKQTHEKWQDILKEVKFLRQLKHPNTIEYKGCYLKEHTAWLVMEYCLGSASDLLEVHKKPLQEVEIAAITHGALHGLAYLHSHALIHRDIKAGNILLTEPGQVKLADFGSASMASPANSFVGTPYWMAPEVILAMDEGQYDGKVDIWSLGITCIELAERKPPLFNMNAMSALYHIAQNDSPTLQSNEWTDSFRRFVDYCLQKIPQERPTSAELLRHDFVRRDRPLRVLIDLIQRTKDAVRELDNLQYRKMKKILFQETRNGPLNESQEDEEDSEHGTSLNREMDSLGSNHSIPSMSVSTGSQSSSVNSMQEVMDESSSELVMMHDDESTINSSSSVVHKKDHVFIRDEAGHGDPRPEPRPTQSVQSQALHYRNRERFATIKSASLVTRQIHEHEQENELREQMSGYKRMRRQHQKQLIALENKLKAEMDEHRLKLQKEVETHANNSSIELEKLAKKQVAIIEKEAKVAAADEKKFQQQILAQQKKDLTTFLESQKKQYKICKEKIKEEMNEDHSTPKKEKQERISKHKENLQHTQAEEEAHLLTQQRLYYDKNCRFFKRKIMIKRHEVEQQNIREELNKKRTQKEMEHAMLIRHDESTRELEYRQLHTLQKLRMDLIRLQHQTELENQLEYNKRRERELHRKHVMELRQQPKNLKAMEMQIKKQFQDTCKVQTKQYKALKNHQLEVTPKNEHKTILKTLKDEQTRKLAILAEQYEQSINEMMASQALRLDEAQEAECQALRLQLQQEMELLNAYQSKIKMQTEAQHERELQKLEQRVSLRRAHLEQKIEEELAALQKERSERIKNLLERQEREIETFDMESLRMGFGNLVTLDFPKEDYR
Chain of RIPK1 (human) (Q13546 whole entry, looked up): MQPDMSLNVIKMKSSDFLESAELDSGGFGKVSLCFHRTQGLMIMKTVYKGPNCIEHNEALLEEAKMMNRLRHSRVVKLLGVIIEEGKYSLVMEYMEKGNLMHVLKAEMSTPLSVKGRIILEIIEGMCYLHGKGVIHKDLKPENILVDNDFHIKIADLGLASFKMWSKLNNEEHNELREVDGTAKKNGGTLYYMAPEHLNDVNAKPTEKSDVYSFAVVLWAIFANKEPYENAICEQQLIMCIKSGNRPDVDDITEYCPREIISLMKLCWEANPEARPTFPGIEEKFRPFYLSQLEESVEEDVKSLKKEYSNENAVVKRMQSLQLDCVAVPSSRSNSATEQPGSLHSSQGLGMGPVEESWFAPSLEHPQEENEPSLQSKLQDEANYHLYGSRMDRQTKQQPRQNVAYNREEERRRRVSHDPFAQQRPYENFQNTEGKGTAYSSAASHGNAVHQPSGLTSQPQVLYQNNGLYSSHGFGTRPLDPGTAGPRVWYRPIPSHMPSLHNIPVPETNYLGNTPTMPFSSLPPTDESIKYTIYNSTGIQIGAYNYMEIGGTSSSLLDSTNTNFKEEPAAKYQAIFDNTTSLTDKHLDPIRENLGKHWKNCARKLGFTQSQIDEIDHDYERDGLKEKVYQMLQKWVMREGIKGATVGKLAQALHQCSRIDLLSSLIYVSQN
Chain of PIK3CA (human), P42336 [Q546K] (P42336 whole entry Q546K, looked up): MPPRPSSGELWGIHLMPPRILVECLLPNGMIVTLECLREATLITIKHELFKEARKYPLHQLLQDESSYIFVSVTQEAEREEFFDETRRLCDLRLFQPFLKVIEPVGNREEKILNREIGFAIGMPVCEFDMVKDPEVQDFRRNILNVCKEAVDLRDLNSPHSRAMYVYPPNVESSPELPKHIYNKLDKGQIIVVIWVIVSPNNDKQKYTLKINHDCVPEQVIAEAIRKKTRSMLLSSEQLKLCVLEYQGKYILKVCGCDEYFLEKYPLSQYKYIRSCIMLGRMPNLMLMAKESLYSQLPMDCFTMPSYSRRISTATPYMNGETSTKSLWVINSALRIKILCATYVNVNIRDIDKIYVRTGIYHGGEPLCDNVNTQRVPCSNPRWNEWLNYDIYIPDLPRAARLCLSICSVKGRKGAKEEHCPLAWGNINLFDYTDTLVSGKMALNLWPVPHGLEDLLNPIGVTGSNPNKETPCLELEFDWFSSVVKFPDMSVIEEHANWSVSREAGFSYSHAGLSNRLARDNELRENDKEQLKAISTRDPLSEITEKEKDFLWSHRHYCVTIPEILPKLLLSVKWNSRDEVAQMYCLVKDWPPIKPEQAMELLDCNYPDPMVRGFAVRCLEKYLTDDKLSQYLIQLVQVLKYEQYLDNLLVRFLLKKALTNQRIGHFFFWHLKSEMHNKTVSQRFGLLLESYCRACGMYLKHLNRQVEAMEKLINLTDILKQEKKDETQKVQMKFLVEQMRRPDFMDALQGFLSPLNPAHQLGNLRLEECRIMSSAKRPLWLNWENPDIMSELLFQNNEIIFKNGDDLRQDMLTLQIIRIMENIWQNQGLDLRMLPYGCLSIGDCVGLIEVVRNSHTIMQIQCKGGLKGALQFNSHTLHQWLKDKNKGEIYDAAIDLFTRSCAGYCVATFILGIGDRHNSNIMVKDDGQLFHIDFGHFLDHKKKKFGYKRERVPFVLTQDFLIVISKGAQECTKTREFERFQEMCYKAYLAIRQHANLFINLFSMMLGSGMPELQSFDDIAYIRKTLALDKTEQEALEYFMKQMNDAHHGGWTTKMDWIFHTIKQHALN

N#Cc1ccc2ncnc(NCCc3ccc4ccccc4c3)c2c1
kinase still bound, per cent of control (PRKD2 (human)): 73%
kinase still bound, per cent of control (EPHB1 (human)): 87%
kinase still bound, per cent of control (MELK (human)): 84%
kinase still bound, per cent of control (MAP2K7 (human)): 94%
kinase still bound, per cent of control (AKT3 (human)): 98%
kinase still bound, per cent of control (CDK16 (human)): 100%
kinase still bound, per cent of control (MAP4K2 (human)): 60%
kinase still bound, per cent of control (EPHA4 (human)): 100%
kinase still bound, per cent of control [1]: 85%
kinase still bound, per cent of control (BMPR1B (human)): 90%
kinase still bound, per cent of control (TAOK3 (human)): 79%
kinase still bound, per cent of control [2]: 96%
kinase still bound, per cent of control (PRKD1 (human)): 100%
kinase still bound, per cent of control (FGFR2 (human)): 90%
kinase still bound, per cent of control (CDC42BPB (human)): 100%
kinase still bound, per cent of control (ACVR2B (human)): 89%
kinase still bound, per cent of control (RPS6KA5 KD2 (human)): 100%
kinase still bound, per cent of control (DAPK3 (human)): 74%
kinase still bound, per cent of control (IRAK4 (human)): 100%
kinase still bound, per cent of control (ITK (human)): 80%
kinase still bound, per cent of control (CIT (human)): 91%
kinase still bound, per cent of control (DAPK2 (human)): 87%
kinase still bound, per cent of control (IGF1R (human)): 100%
kinase still bound, per cent of control (MAP2K5 (human)): 85%
kinase still bound, per cent of control (ACVR1B (human)): 100%
kinase still bound, per cent of control (PIP5K1A (human)): 100%
kinase still bound, per cent of control (PRKACA (human)): 100%
kinase still bound, per cent of control (FGR (human)): 100%
kinase still bound, per cent of control (TGFBR1 (human)): 100%
kinase still bound, per cent of control [3]: 100%
kinase still bound, per cent of control (EPHA1 (human)): 89%
kinase still bound, per cent of control (NIM1 (human)): 82%
kinase still bound, per cent of control [4]: 89%
kinase still bound, per cent of control (FGFR1 (human)): 92%
kinase still bound, per cent of control (TNNI3K (human)): 100%
kinase still bound, per cent of control (RIPK1 (human)): 85%
kinase still bound, per cent of control (DYRK2 (human)): 85%
kinase still bound, per cent of control (PRKCD (human)): 91%
kinase still bound, per cent of control (ERBB4 (human)): 98%
kinase still bound, per cent of control (ACVR1 (human)): 100%
kinase still bound, per cent of control (MAP3K11 (human)): 89%
kinase still bound, per cent of control (GRK1 (human)): 100%
kinase still bound, per cent of control (PDGFRA (human)): 92%
